Test results published in patent US6645938B2, “Protection against ischemia and reperfusion injury” (ZymoGenetics, Inc., priority 2000, dated 2003).

Columns and labels:
[1] = system: isolated perfused rat heart; experiment: Isolated perfused rat heart (Langendorff), 20 min global ischemia and 120 min reperfusion after 24 h pretreatment; assay type: in vivo
Procedure: Compound-D SEQ ID NO:1, at a dose of 2 mg/kg and solubilized as described above, was administered by tail vein injection into rats weighing between about 350-400 g (number of animals (n)=6). Control rats (n=6) were injected in the same manner with an equal volume of 0.9% NaCl. After 24 h, the hearts from both treated and control animals were excised and perfused in a modified Langendorff perfusion apparatus at 37° C. using oxygenated Krebs-Henseleit buffer as the perfusate, as known to one skilled in the art. Coronary perfusion pressure was maintained at […] by regulating coronary flow. All hearts were paced at […] (300 beats per minute, bpm) except during ischemia. A saline-filled balloon was inserted in the left ventricle to measure developed pressure (DP) and end-diastolic pressure (EDP) in mm Hg. After 15 min equilibration, both groups were subjected to 20 min zero-flow global ischemia, and then were reperfused for 120 min.
Left ventricles were isolated and divided into three segments along their short axis, stained with triphenyltetrazolium chloride, and stored in formalin. Infarct size was measured on digitized images and expressed as a percentage of myocardium. Data were expressed as mean plus or minus standard error of the mean (±SEM) and were analyzed using a paired Student's t-Test. Confidence limits were established at 95%. […]

mouse vas deferens = experiment: Mouse vas deferens (m.v.d.) contractility assay; conditions: 6000 nM glibenclamide with 1000 nM compound-D
Procedure: Glibenclamide, a KATP channel blocker, blocked the inhibition of contraction of mouse vas deferens induced by compound-D SEQ ID NO:1. With reference to FIG. 8, the effect of administration of 1000 nM compound-D SEQ ID NO:1 alone (open bar) versus 1000 nM compound-D SEQ ID NO:1 with 6000 nM glibenclamide (hatched bar) on contractility of mouse vas deferens (m.v.d.) (n=6) is shown. Glibenclamide restored m.v.d. contractions which compound-D SEQ ID NO:1 had suppressed. […] (n=2).

Structure (SMILES) | effect of naltrexone on the cardioprotective effects of compound-D ([1]; FIG. 7, naltrexone 3 mg/kg combined with compound-D 2.0 mg/kg, 24 h prior to ischemia) | infarct size ([1]; FIG. 7 naltrexone study, pretreated 24 h prior to ischemia, compound-D 2.0 mg/kg, naltrexone 3 mg/kg, control about 27%) | effect on inhibition of contraction induced by compound-D (mouse vas deferens)
O=C1CC[C@@]2(O)[C@H]3Cc4ccc(O)c5c4[C@@]2(CCN3CC2CC2)[C@H]1O5 [naltrexone] | did not block | about 14.5% | –
COc1ccc(Cl)cc1C(=O)NCCc1ccc(S(=O)(=O)NC(=O)NC2CCCCC2)cc1 [Glibenclamide] | – | – | blocked
